Measured values taken from US6773895B2, “Method for identifying substances which positively influence inflammatory conditions of chronic inflammatory airway diseases” (Boehringer Ingelheim Pharma KG, priority 2000, dated 2004).
Blank lines part the entries; values can stand above or below the molecule they belong to.

What was measured:
MMP-12 = assay: Expression of MMP-12 in MonoMac 6 cells after stimulation with FPRL-1 ligands (TaqMan); settings: 200 nM
Procedure: (§1) In order to examine the effects of ligands for FPRL-1, MonoMac6 cells are seeded at a density of 250,000 cells/ml in 24-well plates (with 2 ml per well), grown for 24 hours at 37° C., 5% CO2 in a humidified atmosphere before stimulation with 200 nM lipoxin A4 (Biomol), W-peptide (1 μM) (synthesized by Metabion, Martinsried), and LPS (Sigma) as a positive control. Cells are harvested at different time points, and total RNA is isolated as described above using the Qiagen RNeasy Total RNA Isolation Kit (Qiagen).
(§2) The RNA is used for Taqman analysis in order to monitor the expression of inflammatory markers like TNFα, IL-8, and MMP-12.

IL-8 = assay: Expression of IL-8 in MonoMac 6 cells after stimulation with FPRL-1 ligands (TaqMan); settings: 200 nM
Procedure: as §1, §2

human bronchi = settings: cited from earlier work
TNFα = assay: Expression of TNFα in MonoMac 6 cells after stimulation with FPRL-1 ligands (TaqMan); settings: 200 nM
Procedure: as §1, §2

monocytes = settings: cited from earlier work
MonoMac6 cells = assay: Chemotaxis (migration) of MonoMac6 cells, 48-well chemotaxis chamber; assay type: cell-based, human; settings: PMA-treated MonoMac6 cells, 4 hours of migration, fold increase in migrated cells over control medium
Procedure: Since an increased invasion of macrophages in peripheral airways of COPD patients can be observed, we tested the chemotactic ability of MonoMac6 cells which serve as a cell culture model for alveolar macrophages. Chemotaxis of MonoMac6 is determined by administering different ligands for FPRL-1.
MonoMac6 cells are treated with PMA for 24-30 hours in order to induce an activation state of the cells. Cells are harvested, washed twice with RPMI 1640 without supplements, and seeded at a density of 500,000 cells/well (24-well plate) in the presence of 10 nM PMA. After 24-30 hours cells are released from the substratum by repeated rinsing with a pipet, spun down, counted and adjusted to a density of 1×10^6 cells/ml of RPMI 1640 media without supplements but in the presence of 10 nM PMA. Chemotaxis is performed in a 48-well chemotaxis chamber (Neuroprobe Inc.) and polycarbonate membranes with a pore size of 8 μm (Neuroprobe Inc.). The lower wells of the chamber are filled with 28 μl of different concentrations of lipoxin A4, W-peptide, MCP-1 as a positive control, and RPMI 1640 media without supplements (including 10 nM PMA) as a negative control. The lower wells are covered with the polycarbonate membrane and the upper compartments of the chamber are filled with 50 μl of the cell suspension (50,000 cells per well). After 4 hours of migration at 37° C., 5% CO2 the cells on the upper part of the membrane are scraped off and the cells attached at the lower part of the membrane are stained with the Diff Quik Staining Set (Dade Behring) according to the manufacturer's protocol. Stained cells are counted in 6 to 8 high power fields at a magnification of 250× with a light microscope. The migration index represents the fold increase in the number of cells migrated in response to the chemoattractant over control medium.

neutrophils = settings: cited from earlier work
FPRL-1 = assay: Expression of FPRL-1 in MonoMac6 cells after stimulation (TaqMan analysis); assay type: cell-based, human; settings: 10 nM PMA
Procedure: MonoMac6 cells are cultivated in 24-well plates in RPMI 1640 media, supplemented with 10% FCS (low endotoxin), 2 mM glutamine, 1× non-essential amino acids, 200 U/ml penicillin, 200 μg/ml streptomycin, and 5 ml OPI media supplement (Sigma). Cells are grown to a density of 600,000 cells per well (2 ml media) and stimulated with 10 nM PMA (phorbol 12-myristate 13-acetate) (Sigma), or 20 ng/ml LPS (lipopolysaccharides from Salmonella minnesota Re595) (Sigma). For smoke exposure, cells are incubated in media enriched with smoke for 10 minutes at 37° C., 5% CO2 at a density of 1×10^6 cells/ml. Enrichment of RPMI 1640 media with smoke is performed with the smoke of two cigarettes. The smoke of the cigarettes is pulled into a 50 ml syringe (about 20 volumes of a 50-ml syringe per cigarette) and then perfused into 100 ml of RPMI 1640 media without supplements. Afterwards, the pH of the smoke-enriched media is adjusted to 7.4 and the media is sterilized through a 0.2 μm filter before use. After the exposure with smoke cells are washed at least twice with RPMI 1640 in order to remove residual smoke particles. Then cells are seeded in 24-well plates with 400,000-600,000 cells per well filled with 2 ml of fresh RPMI 1640 media including the supplements mentioned above.
Both cell types are cultivated at 37° C., 5% CO2 in a humidified atmosphere and cells are harvested at various time points in order to monitor time-dependent effects. Cells are spun down and washed with PBS, resuspended in 400 μl of RLT buffer (Qiagen RNeasy Total RNA Isolation Kit) with 143 mM β-mercaptoethanol, the DNA is sheared with a 20 g needle for at least 5 times and stored at −70° C.
Total RNAs are isolated with the Qiagen RNeasy Total RNA Isolation Kit (Qiagen) according to the manufacturer's protocol. Purified RNA is digested with RNase-free DNase (Qiagen) and used for TaqMan analysis.
Taqman analysis is used to determine mRNA-levels for FPRL-1 in cell lines after treatment with and without various stimuli at different time points. Total RNA isolated from U937 cells that were treated for 3 days with […] is used in order to optimize reaction conditions for determining the mRNA-levels of FPRL-1 and setting standard curves for FPRL-1 and GAPDH (glyceraldehyde-3-phosphate dehydrogenase) as a housekeeping gene. Quantification of FPRL-1 is done with the following primers: Forward primer (rhHM63 668FP, SEQ ID NO:22), Reverse primer (hHM63 525(+)RP, SEQ ID NO:23) and TaqMan probe (rhHM63 629(−)TP, SEQ ID NO:24) labeled with reporter dye FAM at the 5′ end and quencher dye TAMRA at the 3′ end. The mRNA-levels for GAPDH are determined with a predeveloped kit for GAPDH “TaqMan GAPDH Control Reagents” (P/N 402869) from PE Applied Biosystems. The GAPDH probe is labeled with JOE as the reporter dye and TAMRA as the quencher dye. RT-PCR reactions are performed with the “TaqMan EZ RT-PCR Core Reagents” (P/N N808-0236) kit from Perkin Elmer. Standard curves for FPRL-1 and GAPDH are performed with increasing concentrations of RNA from U937 cells treated with 1 μM retinoic acid ranging from 0, 5, 10, 25, 50 to 100 ng per assay. Reaction mixes contain 1× TaqMan EZ-buffer, 3 mM Mn(Oac)2, 300 μM dATP, dCTP, dGTP, and 600 μM dUTP, 2.5 U rTth DNA polymerase, 0.25 U AmpErase UNG in a total volume of 25 μl. For analysis of FPRL-1 reaction mixes include 300 nM of rhHM63 668(−)FP and hHM63 525(+)RP and 100 nM of rhHM63 629(−)TP. The primer concentrations for determining GAPDH levels are 200 nM for each primer and 100 nM for the Taqman probe. In order to determine mRNA levels for FPRL-1 and GAPDH in human subjects and cell lines, 16 to 50 ng RNA per reaction are used. All samples are run in triplicate. The reactions are performed with “MicroAmp Optical 96-well reaction plates” sealed with “MicroAmp Optical Caps” (PE Applied Biosystems) in an ABI PRISM 7700 Sequence Detection System (PE Applied Biosystems). […]

Expression of MMP-12, Fold Induction (MMP-12; t 0 h): 1.00 fold | Expression of MMP-12, Fold Induction (MMP-12; t 3 h): 1.42 fold | Expression of IL-8, Fold Induction (IL-8; t 0 h): 1.00 fold | Expression of IL-8, Fold Induction (IL-8; t 3 h): 1.99 fold | Expression of TNFα, Fold Induction (TNFα; t 0 h): 1.00 fold | Expression of TNFα, Fold Induction (TNFα; t 3 h): 2.43 fold
Molecule: CCCCC[C@H](O)/C=C/C=C\C=C\C=C\[C@@H](O)[C@@H](O)CCCC(=O)O [Lipoxin A4, lipoxin A4]
contraction of human bronchi (human bronchi): dose-dependent contraction | chemotaxis, adherence and calcium release in monocytes (monocytes): stimulates | Migration Index (MonoMac6 cells; 10 nM): 0.86 | Migration Index (MonoMac6 cells; 100 nM): 1.31 | Migration Index (MonoMac6 cells; 1 μM): 1.68 | chemotaxis and adhesion in neutrophils (neutrophils): inhibits | transmigration through epithelial cells (neutrophils): downregulates

Molecule: CCCCCCCCCCCCCC(=O)O[C@@H]1[C@@H](C)[C@@]2(O)[C@@H](C=C(CO)C[C@]3(O)C(=O)C(C)=C[C@@H]23)[C@@H]2C(C)(C)[C@]12OC(C)=O [PMA, phorbol 12-myristate 13-acetate]
ng FPRL-1 mRNA/ ng GAPDH mRNA (FPRL-1; t 0 h): 0.00 ng FPRL-1 mRNA/ ng GAPDH mRNA | ng FPRL-1 mRNA/ ng GAPDH mRNA (FPRL-1; t 1 h): 0.00 ng FPRL-1 mRNA/ ng GAPDH mRNA | ng FPRL-1 mRNA/ ng GAPDH mRNA (FPRL-1; t 3 h): 0.00 ng FPRL-1 mRNA/ ng GAPDH mRNA | ng FPRL-1 mRNA/ ng GAPDH mRNA (FPRL-1; t 12 h): 0.00 ng FPRL-1 mRNA/ ng GAPDH mRNA | ng FPRL-1 mRNA/ ng GAPDH mRNA (FPRL-1; t 24 h): 0.00 ng FPRL-1 mRNA/ ng GAPDH mRNA | ng FPRL-1 mRNA/ ng GAPDH mRNA (FPRL-1; t 48 h): 0.43 ng FPRL-1 mRNA/ ng GAPDH mRNA | ng FPRL-1 mRNA/ ng GAPDH mRNA (FPRL-1; t 72 h): 0.01 ng FPRL-1 mRNA/ ng GAPDH mRNA

Molecule: CSCC[C@H](NC(=O)[C@H](Cc1ccc(O)cc1)NC(=O)[C@H](CCCCN)NC(=O)[C@@H](N)Cc1c[nH]c2ccccc12)C(=O)N[C@H](C(=O)N[C@H](CCSC)C(N)=O)C(C)C [W-peptide, W-K-Y-M-V-m]
Migration Index (MonoMac6 cells; 10 nM): 0.95 | Migration Index (MonoMac6 cells; 100 nM): 1.23 | Migration Index (MonoMac6 cells; 1 μM): 2.46

Molecule: monocyte chemotactic protein 1 [MCP-1]
Migration Index (MonoMac6 cells; 20 ng/ml): 2.59
